Source: patent US7138361B2, “Herbicidal heterocycles” (E. I. du Pont de Nemours and Company, priority 2000, dated 2006)

What was measured:
Assay type in all cases: in vivo
Nightshade = assay: Test C preemergence
Sunflower [1] = assay: Test C preemergence; conditions: Rate 125 g/ha; scale 0 to 100, 0 no effect, 100 complete control
[2] = system: Surinam grass (Brachiaria decumbens); assay: Test C preemergence
How it was run: (§1)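 Preemergence: seeds sown then treated. Postemergence: plants 2–18 cm, 1- to 4-leaf. Both with surfactant-containing solvent formulation; visual injury scored 0–100 after 12–14 d.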

[3] = system: bermudagrass (Cynodon dactylon); assay: Test C preemergence
How it was run: as §1

[4] = system: cocklebur (Xanthium strumarium); assay: Test C preemergence
How it was run: as §1

corn (Zea mays) = assay: Test C preemergence
How it was run: as §1

[5] = system: crabgrass (Digitaria sanguinalis); assay: Test C preemergence
How it was run: as §1

[6] = system: giant foxtail (Setaria faberii); assay: Test C preemergence
How it was run: as §1

[7] = system: goosegrass (Eleusine indica); assay: Test C preemergence
How it was run: as §1

[8] = system: johnsongrass (Sorghum halepense); assay: Test C preemergence
How it was run: as §1

kochia (Kochia scoparia) = assay: Test C preemergence
How it was run: as §1

[9] = system: lambsquarters (Chenopodium album); assay: Test C preemergence
How it was run: as §1

[10] = system: morningglory (Ipomoea hederacea); assay: Test C preemergence
How it was run: as §1

[11] = system: pigweed (Amaranthus retroflexus); assay: Test C preemergence
How it was run: as §1

soybean (Glycine max) = assay: Test C preemergence
How it was run: as §1

[12] = system: velvetleaf (Abutilon theophrasti); assay: Test C preemergence
How it was run: as §1

[13] = system: woolly cupgrass (Eriochloa villosa); assay: Test C preemergence
How it was run: as §1

[14] = system: yellow nutsedge (Cyperus esculentus); assay: Test C preemergence
How it was run: as §1

[15] = system: barnyardgrass (Echinochloa crus-galli); assay: Test C flooded paddy test; conditions: for Barnyardgrass plant response rating: Flooded Paddy, scale 0 to 100, 0 no effect, 100 complete control; for Plant response rating, Barnyardgrass: flooded paddy test, scale 0 to 100 (0 no effect, 100 complete control)
How it was run: (§2)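 Flooded paddy, 2-leaf stage at treatment. Readout: visual % control vs untreated, 0–100, at 12–14 d in greenhouse.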

[16] = system: duck salad (Heteranthera limosa); assay: Test C flooded paddy test; conditions: for Ducksalad plant response rating: Flooded Paddy, scale 0 to 100, 0 no effect, 100 complete control; for Plant response rating, Ducksalad: flooded paddy test, scale 0 to 100 (0 no effect, 100 complete control)
How it was run: as §2

[17] = system: smallflower flatsedge (Cyperus difformis); assay: Test C flooded paddy test; conditions: for Flatsedge plant response rating: Flooded Paddy, scale 0 to 100, 0 no effect, 100 complete control; for Plant response rating, Flatsedge: flooded paddy test, scale 0 to 100 (0 no effect, 100 complete control)
How it was run: as §2

Sunflower [18] = assay: Test C preemergence; conditions: Rate 500 g/ha, visual evaluation after 12 to 14 days
[19] = Rate 125 g/ha, scale 0 to 100, 0 no effect, 100 complete control
[20] = preemergence, Rate 62 g/ha, scale 0 to 100
[21] = preemergence, Rate 500 g/ha, visual evaluation after 12 to 14 days
[22] = preemergence, Rate 250 g/ha, scale 0 to 100, 0 no effect, 100 complete control

CC(C)c1cccc(N2CCC(n3ccc(C(C)(C)C)n3)C2=O)c1 (stereo not drawn) [Compound 111]
Plant response rating, Nightshade (Nightshade; Rate 62 g/ha, scale 0 to 100): 0
Plant response rating, Nightshade (Nightshade; [19]): 0
Plant response rating, Nightshade (Nightshade; Rate 250 g/ha, scale 0 to 100, 0 no effect, 100 complete control): 0
Plant response rating, Sunflower (Sunflower [1]): 0
Plant response rating, Surinam grass [2, 19]: 0
Plant response rating, Surinam grass [2, 20]: 0
Plant response rating (0 to 100), Surinam grass [2, 21]: 10
Plant response rating, Surinam grass [2, 22]: 0
Plant response rating, Bermudagrass [3, 19]: 90
Plant response rating, Bermudagrass [3, 20]: 60
Plant response rating (0 to 100 where 0 is no effect and 100 is complete control), Bermudagrass [3, 21]: 100
Plant response rating, Bermudagrass [3, 22]: 100
Plant response rating, Cocklebur [4, 19]: 0
Plant response rating, Cocklebur [4, 20]: 0
Plant response rating (0 to 100), Cocklebur [4, 21]: 0
Plant response rating, Cocklebur [4, 22]: 0
Plant response rating, Corn (corn (Zea mays); [19]): 0
Plant response rating, Corn (corn (Zea mays); [20]): 0
Plant response rating (0 to 100), Corn (corn (Zea mays); [21]): 0
Plant response rating, Corn (corn (Zea mays); [22]): 0
Plant response rating, Crabgrass [5, 19]: 100
Plant response rating, Crabgrass [5, 20]: 80
Plant response rating (0 to 100), Crabgrass [5, 21]: 100
Plant response rating, Crabgrass [5, 22]: 100
Plant response rating, Foxtail, Giant [6, 19]: 0
Plant response rating, Foxtail, Giant [6, 20]: 0
Plant response rating (0 to 100), Foxtail, Giant [6, 21]: 80
Plant response rating, Foxtail, Giant [6, 22]: 30
Plant response rating, Goosegrass [7, 19]: 85
Plant response rating, Goosegrass [7, 20]: 40
Plant response rating (0 to 100), Goosegrass [7, 21]: 100
Plant response rating, Goosegrass [7, 22]: 100
Plant response rating, Johnsongrass [8, 19]: 0
Plant response rating, Johnsongrass [8, 20]: 0
Plant response rating (0 to 100), Johnsongrass [8, 21]: 25
Plant response rating, Johnsongrass [8, 22]: 0
Plant response rating, Kochia (kochia (Kochia scoparia); [19]): 0
Plant response rating, Kochia (kochia (Kochia scoparia); [20]): 0
Plant response rating (0 to 100), Kochia (kochia (Kochia scoparia); [21]): 0
Plant response rating, Kochia (kochia (Kochia scoparia); [22]): 0
Plant response rating, Lambsquarters [9, 19]: 85
Plant response rating, Lambsquarters [9, 20]: 70
Plant response rating (0 to 100), Lambsquarters [9, 21]: 100
Plant response rating, Lambsquarters [9, 22]: 100
Plant response rating, Morningglory [10, 19]: 0
Plant response rating, Morningglory [10, 20]: 0
Plant response rating (0 to 100), Morningglory [10, 21]: 0
Plant response rating, Morningglory [10, 22]: 0
Plant response rating, Pigweed [11, 19]: 20
Plant response rating, Pigweed [11, 20]: 80
Plant response rating (0 to 100), Pigweed [11, 21]: 50
Plant response rating, Pigweed [11, 22]: 20
Plant response rating, Soybean (soybean (Glycine max); [19]): 0
Plant response rating, Soybean (soybean (Glycine max); [20]): 0
Plant response rating (0 to 100), Soybean (soybean (Glycine max); [21]): 0
Plant response rating, Soybean (soybean (Glycine max); [22]): 0
Plant response rating, Velvetleaf [12, 19]: 0
Plant response rating, Velvetleaf [12, 20]: 0
Plant response rating (0 to 100), Velvetleaf [12, 21]: 0
Plant response rating, Velvetleaf [12, 22]: 0
Plant response rating, Cupgrass, Woolly [13, 19]: 20
Plant response rating, Cupgrass, Woolly [13, 20]: 0
Plant response rating (0 to 100), Cupgrass, Woolly [13, 21]: 60
Plant response rating, Cupgrass, Woolly [13, 22]: 60
Plant response rating, Nutsedge [14, 19]: 0
Plant response rating, Nutsedge [14, 20]: 0
Plant response rating (0 to 100), Nutsedge [14, 21]: 0
Plant response rating, Nutsedge [14, 22]: 0
Barnyardgrass plant response rating ([15]; Rate 250 g/ha): 20
Barnyardgrass plant response rating ([15]; Rate 500 g/ha): 30
Plant response rating, Barnyardgrass ([15]; Rate 62 g/ha): 0
Plant response rating, Barnyardgrass ([15]; Rate 125 g/ha): 0
Ducksalad plant response rating ([16]; Rate 250 g/ha): 0
Ducksalad plant response rating ([16]; Rate 500 g/ha): 0
Plant response rating, Ducksalad ([16]; Rate 62 g/ha): 0
Plant response rating, Ducksalad ([16]; Rate 125 g/ha): 0
Flatsedge plant response rating ([17]; Rate 250 g/ha): 90
Flatsedge plant response rating ([17]; Rate 500 g/ha): 90
Plant response rating, Flatsedge ([17]; Rate 62 g/ha): 50
Plant response rating, Flatsedge ([17]; Rate 125 g/ha): 60
Plant response rating (0 to 100), Sunflower (Sunflower [18]): 0
